We go through 3 compounds from patent CN105267200A, “一种黄酮类化合物的应用” (Shanghai Institute of Organic Chemistry of CAS, priority 2014, dated 2016).

This experiment addresses T1, mTORC1 (Homo sapiens, UniProt P42345).
T1 construct: purchased sigma试剂有限公司 (Sigma) SRP0364
The experiment is described as follows: mTORC1 enzyme activity inhibition (phosphorylation of 5-FAM substrate peptide STTPGGTLFSTTPG), capillary electrophoresis with laser-induced fluorescence. The format is biochemical. The settings on record: mTORC1 31.1 nM, substrate peptide 2 μM, 20 min; for inhibition at 1.25 µM: compound 1.25 μM, read-out: inhibition of the catalytic activity of mTORC1.

T1 sequence (P42345 1362-2549 limits assumed): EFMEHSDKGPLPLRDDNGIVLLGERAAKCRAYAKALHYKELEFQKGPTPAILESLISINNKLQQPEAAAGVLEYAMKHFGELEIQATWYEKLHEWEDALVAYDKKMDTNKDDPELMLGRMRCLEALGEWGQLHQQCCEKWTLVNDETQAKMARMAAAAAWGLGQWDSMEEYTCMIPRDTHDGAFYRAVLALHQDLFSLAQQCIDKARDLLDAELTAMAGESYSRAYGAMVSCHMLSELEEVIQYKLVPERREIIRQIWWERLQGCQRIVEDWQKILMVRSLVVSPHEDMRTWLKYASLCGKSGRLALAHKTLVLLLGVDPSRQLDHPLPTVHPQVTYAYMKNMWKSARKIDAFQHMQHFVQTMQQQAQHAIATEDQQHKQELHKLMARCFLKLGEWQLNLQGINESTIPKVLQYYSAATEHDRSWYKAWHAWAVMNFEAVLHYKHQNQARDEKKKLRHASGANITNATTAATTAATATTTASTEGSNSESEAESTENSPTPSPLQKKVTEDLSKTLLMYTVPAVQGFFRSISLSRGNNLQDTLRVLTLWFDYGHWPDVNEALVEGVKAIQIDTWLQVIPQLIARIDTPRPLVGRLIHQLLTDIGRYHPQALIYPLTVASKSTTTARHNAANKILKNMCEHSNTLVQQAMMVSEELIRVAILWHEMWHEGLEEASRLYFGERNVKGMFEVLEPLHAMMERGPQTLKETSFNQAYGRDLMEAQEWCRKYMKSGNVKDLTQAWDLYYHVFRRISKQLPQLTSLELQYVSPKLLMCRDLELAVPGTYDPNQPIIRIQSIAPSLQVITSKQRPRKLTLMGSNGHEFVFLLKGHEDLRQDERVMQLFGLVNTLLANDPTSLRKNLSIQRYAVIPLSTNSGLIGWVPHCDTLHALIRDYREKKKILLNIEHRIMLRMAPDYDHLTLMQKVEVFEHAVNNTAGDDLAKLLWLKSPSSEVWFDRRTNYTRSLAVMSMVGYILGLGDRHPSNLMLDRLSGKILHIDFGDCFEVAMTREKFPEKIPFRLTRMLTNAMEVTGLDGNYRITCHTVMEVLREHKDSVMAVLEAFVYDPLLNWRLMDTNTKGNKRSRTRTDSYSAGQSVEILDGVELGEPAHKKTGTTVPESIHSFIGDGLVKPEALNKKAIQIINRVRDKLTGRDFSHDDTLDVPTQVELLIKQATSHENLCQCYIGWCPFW

As for `O=c1c(O)c(-c2ccc(O)c(O)c2)oc2cc(O)cc(O)c12` [槲皮素], inhibition (nonlinear fit Origin 8.0) was half-maximal at 377 nM (IC50). Further, the inhibition percentage was determined as 0% (quercetin 0.05 nmol/L); 0% (quercetin 0.5 nmol/L); 0% (quercetin 5 nmol/L); 8% (quercetin 50 nmol/L); 47% (quercetin 250 nmol/L); 53% (quercetin 500 nmol/L). In addition, the inhibition percentage reads like this: (quercetin 5×10^3 nmol/L) 97%; (quercetin 5×10^4 nmol/L) 100%; (quercetin 5×10^5 nmol/L) 100%. Besides, where the note is “quercetin 0.5 μM, 25℃”, the “inhibition of mTORC1 phosphorylation of the substrate peptide (in words, electropherogram Fig. 1C)” value is “可以有效抑制”.

As for `O=c1c(O[C@@H]2O[C@H](CO)[C@H](O)[C@H](O)[C@H]2O)c(-c2ccc(O)c(O)c2)oc2cc(O)cc(O)c12` [金丝桃苷, reference compound], the inhibition at 1.25 µM amounted to 25%.

Regarding `O=c1cc(-c2ccccc2)oc2cc(O)c(O)c(O)c12` [黄芩素, reference compound], the inhibition at 1.25 µM turned out to be 25%.
